Test results: patent publication US8202887B2, “2-(substituted-amino)-benzothiazole sulfonamide HIV protease inhibitors” (Janssen R&D Ireland, priority 2006, dated 2012)

How the values were obtained:
Beagle dogs [1] = assay: Hypersensitivity testing: erythema and edema in dogs, single dose; format: in vivo; conditions: for induction of erythema and/or edema: single dose experiments in dogs, summary in words
Protocol: (§1) Studies were carried out to test for the occurrence of erythema and edema in dogs. The compound having structural formula (II) was orally administered to Beagle dogs in an appropriate formulation as a single-dose, dose-escalating study design. In order to achieve high systemic exposures, a so-called booster compound was co-administered (ritonavir, RTV). Blood samples were taken at regular time points following the dosing. Clinical signs were recorded at least once daily for the treatment period and follow up (for at least 24 hours). Symptoms were graded on a […], with 0 being absence of symptoms, 1 mild, 2, moderate, 3 severe, 4 very severe. Special attention was paid to the occurrence of erythema and edema.

[2] = tested on: clinically isolated HIV strain D; assay: Cellular anti-viral assay in MT4-LTR-EGFP cells, mutant strain D; format: cell-based; conditions: Human immunodeficiency virus 1, 72 h, read-out: pEC50 virus strain D (converted)
Protocol: (§2) Because of the increasing emergence of drug resistant HIV strains, the present compounds were tested for their potency against clinically isolated HIV strains harboring several mutations. These mutations are associated with resistance to protease inhibitors and result in viruses that show various degrees of phenotypic cross-resistance to the currently commercially available drugs such as for instance saquinavir, ritonavir, nelfinavir, indinavir and amprenavir. The viral strains coded as A, B, C and D contain mutations as indicated below in Table 2.
(§3) The cellular assay was performed according to the following procedure. HIV- or mock-infected MT4-LTR-EGFP cells were incubated for three days in the presence of various concentrations of the compounds according to the invention. Upon infection, the viral tat protein activates the GFP reporter. At the end of the incubation period, the GFP signal was measured. In the virus control samples (in the absence of any inhibitor) the maximal fluorescent signal was obtained. The inhibitory activity of the compound was monitored on the virus-infected cells and was expressed as EC50. These values represent the amount of the compound required to protect 50% of the cells from virus infection. (Table 3).

beagle dog [3] = assay: Single dose escalation/five day repeat dose toxicology study in beagle dog; format: in vivo
Protocol: In a single dose escalation/S day repeat dose dog toxicology study, beagle dogs were treated with compound II according to the current invention at dose levels from 40 up to 144 mg/kg day.

[4] = Pharmacokinetics of compound II and boosting effect of ritonavir in fed male beagle dogs; format: in vivo; conditions: for AUC(0-inf) / Cmax: male, beagle, dog, plasma, po
Protocol: Pharmacokinetics of Compound II and Boosting Effect of Ritonavir in Fed Male Beagle Dogs after Single Oral Administration of Compound II at 10 or 40 mg/kg.
The present study was performed to study the plasma pharmacokinetics of compound II in male beagle dogs after single oral administration doses of 10 and 40 mg/kg, and to evaluate the potential boosting effect of ritonavir, dosed at 10 mg/kg twice daily, on the bioavailability of compound II.
Beagle dogs (7-11 kg body weight) were dosed after feeding. Both compound II and ritonavir were given by gavage of an oral solution. All animals first received compound II alone, and after a washout of one week, the combination of ritonavir and compound II in the morning. Ritonavir dosing was repeated in the evening and on the next day's morning. Plasma was sampled to measure compound II and ritonavir concentrations until 32 hours after dosing of compound II.

[5] = Plasma exposure (AUC) in single-dose, dose-escalating dog study; format: in vivo, Beagle dogs; conditions: beagle
Protocol: as §1, with “edema. The concentration of the compound having formula (II) in dog plasma was determined using a LC-MS/MS method. Raw data were used to calculate standard pharmacokinetic parameters (e.g. AUC) as a measure of systemic exposure. The systemic exposure for the compound having formula (II) was compared to the exposure of a reference compound having structural formula (III), in similar single-dose experiments in dogs, in the absence of a booster (ritonavir).” for “edema.”

[6] = tested on: clinically isolated HIV strain C; assay: Cellular anti-viral assay in MT4-LTR-EGFP cells, mutant strain C; format: cell-based; conditions: Human immunodeficiency virus 1, 72 h, read-out: pEC50 virus strain C (converted)
Protocol: as §2, §3

[7] = tested on: wild type laboratory HIV strain (WT IIIB-2-001); assay: Cellular anti-viral assay in MT4-LTR-EGFP cells, wild type strain; format: cell-based; conditions: Human immunodeficiency virus 1, IIIB, 72 h; MT4-LTR-EGFP cells, three days, GFP signal; read-out: pEC50 WT-IIIB-2-001 (converted)
Protocol: The compounds were tested in a cellular assay using the MT4-LTR-EGFP cells for anti-viral activity.
as §3, with “In the virus control samples (in the absence of any inhibitor) the maximal fluorescent signal was obtained.” left out, “infection.” for “infection. (Table 3).”

Beagle dogs [8] = assay: 28 day / 1-month toxicology study in beagle dogs; format: in vivo; conditions: for erythema and edema after oral administration: summary of toxicology studies up to 1 month in duration, beagle dog
Protocol: These findings occurred shortly after dosing, were transient in nature, maximal between approximately 1 to 2 hours after dosing, disappearing thereafter. There was a large interindividual variation in this response, with no dose-response relationship. Mechanistic studies to clarify the cause for erythema were not indicative of a histamine-based mechanism of action.

[9] = tested on: clinically isolated HIV strain A; assay: Cellular anti-viral assay in MT4-LTR-EGFP cells, mutant strain A; format: cell-based; conditions: Human immunodeficiency virus 1, 72 h, read-out: pEC50 virus strain A (converted)
Protocol: as §2, §3

[10] = tested on: clinically isolated HIV strain B; assay: Cellular anti-viral assay in MT4-LTR-EGFP cells, mutant strain B; format: cell-based; conditions: Human immunodeficiency virus 1, 72 h, read-out: pEC50 virus strain B (converted)
Protocol: as §2, §3

beagle dog [11] = assay: Oral 3 month dog toxicology study; format: in vivo
Protocol: In some cases, these symptoms started as maculate erythema and/or nodular swelling and progressed to diffuse/general erythema and swelling. Signs were predominantly visible in areas with thin/sparse fur including the ears, periorbital region and abdomen. The findings were transient, with maximal severity about one hour after dosing and disappearing or decreasing to lower severity by 4 hours post-administration.

[12] = 10 mg/kg, 10 mg/kg compound II single oral, with Ritonavir 10 mg/kg twice daily
[13] = 10 mg/kg, 10 mg/kg compound II single oral, without Ritonavir
[14] = 40 mg/kg compound II single oral, with Ritonavir 10 mg/kg twice daily
[15] = 40 mg/kg, 40 mg/kg compound II single oral, without Ritonavir

For `CC(C)CN(C[C@@H](O)[C@H](Cc1ccccc1)NC(=O)O[C@H]1CO[C@H]2OCC[C@H]21)S(=O)(=O)c1ccc2nc(NC3CCN(C4CCCC4)CC3)sc2c1` [Compound 7, (1-benzyl-3-{[2-(1-cyclopentyl-piperidin-4-ylamino)-benzothiazole-6-sulfonyl]-isobutyl-amino}-2-hydroxy-propyl)-carbamic acid hexahydro-furo[2,3-b]furan-3-yl ester], the Erythema/edema (Beagle dogs [1]; oral single dose 20 mg/kg, with ritonavir (RTV) coadministration) was “No”, the Erythema/edema (Beagle dogs [1]; oral single dose 40 mg/kg, with ritonavir (RTV) coadministration) was “No” and the Erythema/edema (Beagle dogs [1]; oral single dose 80 mg/kg, with ritonavir (RTV) coadministration) was “No”. For the same compound, the “induction of erythema and/or edema” value (Beagle dogs [1]) was “did not induce erythema and/or edema”, the EC50 [2] was 13.5 nM and the edema or erythema (beagle dog [3]; dose levels from 40 up to 144 mg/kg day) was “No evidence of edema or erythema”. For the same compound, the “Cmax Ratio (with/without Ritonavir)” value ([4]; 10 mg/kg compound II) was 7.1, the “Relative bioavailability Frel (AUC0-inf with vs without Ritonavir)” value ([4]; 10 mg/kg compound II) was 1378% and the “Cmax Ratio (with/without Ritonavir)” value ([4]; 40 mg/kg compound II) was 3.6. For the same compound, the “Relative bioavailability Frel (AUC0-inf with vs without Ritonavir)” value ([4]; 40 mg/kg compound II) was 1083%, the “increase of AUC in the presence of ritonavir” value ([4]; 10 and 40 mg/kg compound II) was “over 10 fold” and the “increase of Cmax in the presence of ritonavir” value ([4]; 10 and 40 mg/kg compound II) was 4 to 7 fold. The AUC(0-inf) [4, 12] was 4370 ng·h/mL, the Cmax [4, 12] was 879 ng/mL and the AUC(0-inf) [4, 13] was 330 ng·h/mL. For the same compound, the Cmax [4, 13] was 123 ng/mL, the AUC(0-inf) [4, 14] was 23600 ng·h/mL and the Cmax [4, 14] was 4220 ng/mL. For the same compound, the AUC(0-inf) [4, 15] was 2290 ng·h/mL, the Cmax [4, 15] was 1190 ng/mL and the “total plasma exposure (AUC) and peak plasma concentrations (Cmax) after co-administration with ritonavir” value ([4]; twice-daily dosing of 10 mg/kg ritonavir, in words) was “markedly increased”. It also gave an AUC ([5]; oral single dose 20 mg/kg, with ritonavir (RTV) coadministration, mean of 4 animals) of 7750 ng·h/mL, an AUC ([5]; oral single dose 40 mg/kg, with ritonavir (RTV) coadministration, mean of 4 animals) of 23000 ng·h/mL and an AUC ([5]; oral single dose 80 mg/kg, with ritonavir (RTV) coadministration, mean of 4 animals) of 23000 ng·h/mL. For the same compound, the EC50 [6] was 2880 nM, the EC50 [7] was 13.2 nM and the Erythema/edema (Beagle dogs [8]; 1-month study, dose levels 5, 20 and 40 mg/kg/day) was “neither erythema nor edema was noted”. For the same compound, the “erythema and edema after oral administration” value (Beagle dogs [8]) was “did not induce erythema and/or edema”, the EC50 [9] was 11.7 nM and the EC50 [10] was 20 nM.

For `CC(C)CN(C[C@@H](O)[C@H](Cc1ccccc1)NC(=O)O[C@H]1CO[C@H]2OCC[C@H]21)S(=O)(=O)c1ccc2nc(NCCN3CCCC3)sc2c1` [Reference compound having formula (III)], the erythema or edema (beagle dog [11]; 10 mg/kg/day) was “No erythema or edema was observed”, the erythema (beagle dog [11]; 40 mg/kg/day, after 5 weeks of treatment) was “one of four males dosed at 40 mg/kg/day exhibited general erythema” and the “erythema of the skin and swelling” value (beagle dog [11]; 120 mg/kg/day, majority of the animals, entire treatment period) was “slight to severe erythema of the skin, accompanied by swelling”. For the same compound, the “time after dosing of maximal severity of erythema/swelling” value (beagle dog [11]; 3 month study, transient findings) was “about one”, the Erythema/edema (Beagle dogs [1]; single dose 10 mg/kg, absence of booster) was “No” and the Erythema/edema (Beagle dogs [1]; single dose 40 mg/kg, absence of booster) was “No”. For the same compound, the Erythema/edema (Beagle dogs [1]; single dose 80 mg/kg, absence of booster) was “Yes”, the Erythema/edema (Beagle dogs [1]; single dose 120 mg/kg, absence of booster) was “Yes” and the “induction of erythema and/or edema” value (Beagle dogs [1]) was “did induce these clinical signs”. The erythema (beagle dog [3]; high dose level 80 mg/kg/day, after five consecutive days of treatment) was “exhibited general erythema”, the AUC ([5]; oral, single dose 10 mg/kg, absence of booster, range) was 47 to 238 ng·h/mL and the AUC ([5]; oral, single dose 40 mg/kg, absence of booster, range) was 3320 to 5090 ng·h/mL. The AUC ([5]; oral, single dose 80 mg/kg, absence of booster, range) was 7370 to 16000 ng·h/mL, the AUC ([5]; oral, single dose 120 mg/kg, absence of booster, range) was 10200 to 27500 ng·h/mL and the “redness of the skin (erythema)” value (Beagle dogs [8]; 28 day study, all dose levels (40, 80, 120 mg/kg/day), most animals) was “slight to severe redness of the skin”. The “onset of erythema symptoms” value (Beagle dogs [8]; 28 day study, dose levels 80 and 120 mg/kg/day) was “present from the start of the study”, the “onset of erythema symptoms” value (Beagle dogs [8]; 28 day study, low dose level 40 mg/kg/day) was “third week” and the “swelling (edema) accompanying erythema” value (Beagle dogs [8]; 28 day study, head, flews, eyes and/or ears, most cases) was “accompanied by swelling (edema)”. For the same compound, the “time after dosing of maximal erythema/edema findings” value (Beagle dogs [8]; 28 day study, transient findings) was 1 to 2 h and the “erythema and edema after oral administration” value (Beagle dogs [8]) was “produced erythema and edema”.
